Consider six molecules from ChEMBL document CHEMBL1130312, “Synthesis and receptor binding affinity of conformationally restricted retinoic acid analogues” (Bioorg Med Chem Lett, 1997).

Molecules are shown by their SMILES.

Assay [1] addresses T1, Retinoic acid receptor RXR-gamma (Homo sapiens, UniProt P48443).
T1 sequence (P48443 whole entry): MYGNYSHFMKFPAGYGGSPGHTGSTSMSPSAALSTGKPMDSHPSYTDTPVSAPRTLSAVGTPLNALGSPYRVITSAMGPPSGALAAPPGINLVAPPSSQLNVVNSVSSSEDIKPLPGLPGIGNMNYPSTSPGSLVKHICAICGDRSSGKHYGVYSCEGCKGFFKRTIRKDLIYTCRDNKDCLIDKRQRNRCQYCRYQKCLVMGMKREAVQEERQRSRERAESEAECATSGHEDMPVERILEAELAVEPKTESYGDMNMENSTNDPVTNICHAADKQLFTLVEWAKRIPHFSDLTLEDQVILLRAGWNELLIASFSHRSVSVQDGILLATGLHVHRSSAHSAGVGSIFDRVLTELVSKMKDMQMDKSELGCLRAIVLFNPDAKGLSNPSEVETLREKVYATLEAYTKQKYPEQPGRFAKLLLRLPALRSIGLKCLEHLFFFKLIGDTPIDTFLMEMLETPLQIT
Put plainly: Binding affinity towards Retinoic acid receptor RXR-gamma by displacing 3.4 nM 3[H]-9-cis-RA; IA = Inactive.

In assay [2] the target is T2, Retinoic acid receptor beta (Homo sapiens, UniProt P10826).
T2 sequence (P10826 whole entry): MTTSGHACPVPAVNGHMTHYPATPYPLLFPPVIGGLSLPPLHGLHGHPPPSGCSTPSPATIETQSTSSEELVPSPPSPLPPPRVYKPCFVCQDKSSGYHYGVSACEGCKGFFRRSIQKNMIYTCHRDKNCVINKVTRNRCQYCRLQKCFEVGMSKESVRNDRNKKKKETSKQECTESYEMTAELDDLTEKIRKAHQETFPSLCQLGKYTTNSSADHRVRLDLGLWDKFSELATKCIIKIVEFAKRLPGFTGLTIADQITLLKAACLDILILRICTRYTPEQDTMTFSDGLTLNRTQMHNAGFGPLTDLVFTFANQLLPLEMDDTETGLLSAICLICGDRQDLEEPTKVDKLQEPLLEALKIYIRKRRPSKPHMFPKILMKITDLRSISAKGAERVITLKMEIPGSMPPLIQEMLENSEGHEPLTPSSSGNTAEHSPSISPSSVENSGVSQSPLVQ
In words: Binding affinity towards cRAR-beta-2 receptor by displacing 1.1 nM 3[H]-9-cis-RA; IA = Inactive.

For assay [3], the target named is T2, Retinoic acid receptor beta. In words: Binding affinity towards cRAR-beta-2 receptor by displacing 0.82 nM 3[H]-all-trans-RA; IA = Inactive.
In assay [4] the target is T1, Retinoic acid receptor RXR-gamma. In words: Binding affinity towards Retinoic acid receptor RXR-gamma by displacing 3.4 nM 3[H]-9-cis-RA; No binding competition.
Assay [5] concerns the target T3, Retinoic acid receptor alpha (Homo sapiens, UniProt P10276).
T3 sequence (P10276 whole entry): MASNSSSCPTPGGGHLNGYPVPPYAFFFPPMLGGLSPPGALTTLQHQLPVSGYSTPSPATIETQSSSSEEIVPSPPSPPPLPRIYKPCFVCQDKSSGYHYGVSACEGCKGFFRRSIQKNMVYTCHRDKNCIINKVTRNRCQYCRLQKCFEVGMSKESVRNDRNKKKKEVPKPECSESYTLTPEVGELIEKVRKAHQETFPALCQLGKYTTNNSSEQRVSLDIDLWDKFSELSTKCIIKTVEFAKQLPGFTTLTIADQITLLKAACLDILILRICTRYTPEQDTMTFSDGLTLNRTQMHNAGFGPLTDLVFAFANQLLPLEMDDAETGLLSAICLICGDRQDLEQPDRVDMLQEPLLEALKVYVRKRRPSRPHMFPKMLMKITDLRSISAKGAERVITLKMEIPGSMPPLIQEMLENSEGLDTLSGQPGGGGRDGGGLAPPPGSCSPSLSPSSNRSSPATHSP
In words: Binding affinity towards human Retinoic acid receptor alpha.

Assay [6] concerns the target T1, Retinoic acid receptor RXR-gamma. Put plainly: Binding affinity towards Retinoic acid receptor RXR-gamma by displacing 3.4 nM 3[H]-9-cis-RA.
Assay [7] addresses T2, Retinoic acid receptor beta. In words: Binding affinity towards cRARbeta2 receptor by displacing 0.82 nM 3[H]all-trans-RA.
Assay [8] addresses T4, Retinoic acid receptor gamma (Homo sapiens, UniProt P13631).
T4 sequence (P13631 whole entry): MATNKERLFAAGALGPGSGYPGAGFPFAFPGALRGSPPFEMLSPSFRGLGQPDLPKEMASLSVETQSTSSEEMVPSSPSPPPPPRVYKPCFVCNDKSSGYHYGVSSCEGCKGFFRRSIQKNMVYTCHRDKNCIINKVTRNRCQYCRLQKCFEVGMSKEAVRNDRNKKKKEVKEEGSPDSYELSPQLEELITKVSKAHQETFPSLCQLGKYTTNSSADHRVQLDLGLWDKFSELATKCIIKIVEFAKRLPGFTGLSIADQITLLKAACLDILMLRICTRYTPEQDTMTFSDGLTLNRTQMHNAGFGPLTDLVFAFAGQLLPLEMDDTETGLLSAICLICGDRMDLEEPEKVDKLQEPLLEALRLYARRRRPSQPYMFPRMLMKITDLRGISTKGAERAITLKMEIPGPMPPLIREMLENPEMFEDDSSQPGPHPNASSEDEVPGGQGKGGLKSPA
In words: Binding affinity towards human Retinoic acid receptor gamma.

Assay [9] has as its target T2, Retinoic acid receptor beta. In words: Binding affinity towards cRAR-beta-2 receptor by displacing 1.1 nM 3[H]-9-cis-RA.

Consider `CCOC(=O)[C@H]1C[C@@]1(C)/C=C/C=C(C)/C=C/C1=C(C)CCCC1(C)C`, for which the Ki entry in assay [1], in assay [2] and in assay [3] was “Not Active” in each case.

As for `CCOC(=O)[C@@H]1C[C@@]1(C)/C=C/C=C(C)/C=C/C1=C(C)CCCC1(C)C`, the Ki result in [1], in [2] and in assay [3] was “Not Active” throughout.

In the case of `C/C(=C\c1ccc(C(=O)O)cc1)c1ccc2c(c1)C(C)(C)CCC2(C)C`, the Ki (commonly the equilibrium dissociation constant of an inhibitor or competing ligand from its target) in assay [4] is “Not Active”.

Turning to `CC(=C/C(=O)O)/C=C/C1CC1/C=C/C1=CC(C)(C)CCC1(C)C` (stereo not drawn), the Ki in [5] is above 4000 nM; in assay [6], above 2800 nM; in assay [7] it was above 1100 nM; in assay [8], above 4000 nM; in [9], above 1200 nM.

For `CC(/C=C/C1CC1/C=C/C1=CC(C)(C)CCC1(C)C)=C\C(=O)O` (stereo not drawn), the Ki in assay [5] was 3.1 nM; in assay [6], above 7200 nM; in [7], 11 nM; in [8], 32 nM; in [9] it was 13 nM.

Consider `CC1=C(/C=C/C(C)=C/C=C/C(C)=C/C(=O)O)C(C)(C)CCC1` [TRETINOIN], for which, in assay [4], the Ki entry is recorded as “Not Active”.
